# Data reported in patent US20050107303A1, “Health feed” (priority 2001, published 2005).
# Tested on: immunoglobulin A
# Assay: IgA production by mid colon biopsy samples of cats fed the diets, measured by ELISA
# Assay type: in vivo, cat
# Description: The study was carried out using eight members of the cat colonic health panel, which were known to be in good (intestinal) health. Cats were wormed and vaccinated 6 months prior to the start of the trial. The cats underwent the following trial regime; [table] Both the control diet and the glutamine enriched diet provided 405 kCal/100 g. The control diet was a dry diet containing approximately 4% water. The control diet comprised the following ingredients (˜is approximately): The glutamine-supplemented diet comprised 1% dry weight by weight glutamine provided as L-glutamine. The glutamine was sprayed onto the external surface of the dry control product. Levels of immunoglobulin A production by mid colon biopsy samples were measured by enzyme linked immunosorbent assay (ELISA). IgA ELISA test was obtained from Bethyl and performed as described in provided protocol sheets. In short, 96 well microplates were taken and coated with 100 μl anti-canine IgA overnight at 4° C. After each step the plates were washed with ELISA wash (50 Mm) Tris, pH 8.0, 0.1M NaCl, 0.05% Tween 20). Unreacted sites were blocked with tris-buffered saline (TBS) containing 1% bovine serum albumin (BSA) for 30 minutes. […] Finally, the absorbence was read spectrophotometrically at 450 nm using an ELISA plate reader.
smiles,measurement,setting,value
"NC(=O)CC[C@H](N)C(=O)O [Glutamine, L-glutamine]","IgA production by the colon, compared to the other diets","cats fed diets containing 1% glutamine, samples taken from below the transwell, P=0.048, GLM",significant increase
same,IgA production (ng/mg protein) Intestinal Sample,"healthy cats, diet with 1% dry w/w L-glutamine for 28 days, mid colon biopsy samples, letters (a)/(b) mark a significant difference",1003.1 ± 762.9 (b) ng/mg protein
